According to patent publication US6676932B2, “Ultraviolet absorbent, photostabilizer, ultraviolet ray-absorbing composition, photostabilized composition and external preparation for skin” (Shiseido Co., Ltd., priority 2001, dated 2004):

Assays:
[1] = Dye stabilization effect under daylight exposure (Test Examples 6-91); type: physicochemical; set-up: key to Δ E: color difference ΔE in Lab vs. color before daylight exposure; key to Appearance (visual determination): ◯: no change; Δ: almost no change; x: change; conditions: photostabilizer 0.05 wt %, daylight exposure (80 MJ)
Outline: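 Test samples exposed to daylight to 80 MJ; appearance judged visually. Colour measured by spectrophotometer in Lab coordinates, with ΔE calculated relative to pre-exposure values (L1, a1, b1).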

[2] = Stability test in combination with inorganic powder-based ultraviolet shielding agent, sunscreen cream (Test Example 5); type: physicochemical; conditions: sunscreen cream with inorganic powders; ultraviolet absorbent 10.0 wt %; 50° C. for 2 months; visual observation
Method: A sunscreen cream of the following formulation was prepared and stored at 50° C. for 2 months. Under visual observation of the color change, the stability of the inventive pyridazine derivative in combination with inorganic powder-based ultraviolet screening agents commonly in blend as external preparations for skin for the purpose of ultraviolet prevention was examined.
After the ingredient 2 was added to the ingredient 1 to swell the ingredient 2, the ingredients 3 to 11 were mixed with the resulting mixture under heating, for sufficient dispersion and dissolution. While keeping the dispersion at 70° C., a solution of the mixture of the ingredients 12 to 15 was gradually added to the dispersion under thorough emulsification with a homomixer. The resulting mixture was cooled to 30° C. under sufficient stirring to prepare sunscreen creams.

skin [3] = experiment: Test of skin irritation: continuous application test (Test Example 3 i); type: in vivo, human; conditions: 10 wt % ultraviolet absorbent, twice daily for 4 weeks
Method: (§1) The same samples as in the Test Example 2 were used (at a 10 wt % amount of an ultraviolet absorbent).
Continuous application test was carried out for 20 healthy subjects per one group. An appropriate amount of each of the samples was coated twice daily for 4 weeks. The effects were assessed according to the following assessment standards.
Mean score was calculated for the determination of the effect on the basis of the following standards.
(§2) ◯: mean score of more than 0 to less than 1.
(§3) Δ: mean score of 1 or more to less than 2.
(§4) x: mean score of 2 or more.

[4] = Stabilization effect on perfume under daylight exposure (Test Examples 92 to 181); type: physicochemical; set-up: key: ◯: no change; Δ: almost no change; x: change; conditions: daylight exposure (80 MJ)
Method: Each test sample was prepared for observation of the change of the odor of the test sample (determined by perfume coordinator) before and after daylight exposure (80 MJ).

[5] = Drug stabilization effect under daylight exposure (Test Examples 182 to 211); type: physicochemical; set-up: key to Appearance (visual determination): ◯: no change; Δ: almost no change; x: change; conditions: drug salicylic acid 0.1 wt %, photostabilizer 0.05 wt %, daylight exposure (80 MJ)
Method: For observation of the change of the appearance of each test sample (determination based on visual observation) and the measurement of the remaining ratio by liquid chromatography before and after daylight exposure (80 MJ), the test sample was prepared.

skin [6] = experiment: Test of skin irritation: 24-hour occlusion patch test (Test Example 3 ii); type: in vivo, human; conditions: 10 wt % ultraviolet absorbent
Method: as §1
20 Healthy male and female volunteers per one group were carried out in a 24-hour occlusion patch test, using a fin chamber on forearm curves. Assessment was done on the basis of the following assessment standards.
Mean score was determined for the assessment on the basis of the following standards.
as §2, §3, §4

sunburn = experiment: Ultraviolet preventive effect, application test on beach in summer (Test Example 2); type: in vivo, human
Method: An application test was carried out on beach in summer. Equal volumes of samples were individually coated on back halves of subjects. After exposure to direct daylight, the degree of sunburn was assessed according to the following assessment standards. Each group consists of 10 subjects.
Prominently effective: none or almost no sunburn symptom was observed.
Effective: light sunburn symptom was observed.
Ineffective: strong sunburn symptom was observed.
⊚: prominently effective or effective for 80% or more of the subjects.
◯: prominently effective or effective for 50% or more to less than 80% of the subjects.
Δ: prominently effective or effective for 30% or more to less than 50% of the subjects.
x: prominently effective or effective for less than 30% of the subjects.
The aqueous phase and the alcohol phase were separately prepared and then mixed together.
Propylene glycol was added to and dissolved in ion exchange water. The resulting solution was retained at 70° C. under heating (aqueous phase). Other ingredients were mixed […]. The resulting mixture was melted under heating and retained at 70° C. (oil phase). The oil phase was added to the aqueous phase, for preliminary emulsification with a homomixer to homogeneity. Under thorough mixing, subsequently, the mixture was cooled to 30° C.

[7] = Photostability test of aqueous solutions under daylight (Test Example 4); type: physicochemical; conditions: aqueous solution, daylight for 2 weeks (80 MJ)
Method: Aqueous solutions of the pyridazine derivative of the invention were exposed to daylight for 2 weeks (at a daylight exposure of 80 MJ). Subsequently, the remaining ratio and the change of the appearance were examined to measure the ultraviolet spectra with a spectrophotometer (solvent: water; concentration of 10 ppm and optical path length of 1 cm). The area under ultraviolet spectra curve from 290 nm to 400 nm were determined by integration to compare the area with the area before daylight exposure.
The remaining ratio and the change of the area under the ultraviolet spectrum were determined on the basis of the following standards.
⊚: 95% or more of those before daylight exposure.
◯: 90% or more to less than 95% of those before daylight exposure.
Δ: 70% or more to less than 90% of those before daylight exposure.
x: less than 70% of those before daylight exposure.

[8] = dye Blue 1 (Brilliant Blue FCF) 0.0001 wt %
[9] = dye Green 3 (Fast Green FCF) 0.001 wt %
[10] = dye Red 227 (Acid Fuchsine D) 0.0001 wt %
[11] = dye Yellow 5 (Sunset Yellow FCF) 0.001 wt %
[12] = dyes Red 227 (Acid Fuchsine D) 0.0001 + Yellow 5 (Sunset Yellow FCF) 0.0001 wt %

Oc1nnccc1N1CCCCC1 [3-Hydroxy-4-piperidinopyridazine, 3-hydroxy-4-piperidinopyridazine]
Appearance (visual determination) [1, 8]: ◯ | Δ E [1, 8]: 1.24 | Appearance (visual determination) [1, 9]: ◯ | Δ E [1, 9]: 0.46 | Appearance (visual determination) [1, 10]: ◯ | Δ E [1, 10]: 0.54 | Appearance (visual determination) [1, 11]: ◯ | Δ E [1, 11]: 0.58 | Appearance (visual determination) [1, 12]: ◯ | Δ E [1, 12]: 0.65 | Color change [2]: no | Determination (skin reaction, continuous application test) (skin [3]; cream): ⊚ (mean score of 0) | Determination (skin reaction, continuous application test) (skin [3]; lotion): ⊚ (mean score of 0) | odor determination ([4]; base perfume Rose, photostabilizer 0.05 wt %): ◯ | odor determination ([4]; base perfume Woody, photostabilizer 0.1 wt %): ◯ | odor determination ([4]; natural perfume Rose oil, photostabilizer 0.05 wt %): ◯ | Appearance (visual determination) [5]: ◯ | Remaining ratio (%) ([5]; liquid chromatography): 98.4% | Determination (skin reaction, patch test) (skin [6]; cream): ⊚ (mean score of 0) | Determination (skin reaction, patch test) (skin [6]; lotion): ⊚ (mean score of 0) | Ultraviolet prevention effect (sunburn; cream, blend amount 0.0005 wt %): Δ (prominently effective or effective for 30% or more to less than 50% of the subjects) | Ultraviolet prevention effect (sunburn; cream, blend amount 0.001 wt %): ◯ (prominently effective or effective for 50% or more to less than 80% of the subjects) | Ultraviolet prevention effect (sunburn; cream, blend amount 0.01 wt %): ⊚ (prominently effective or effective for 80% or more of the subjects) | Ultraviolet prevention effect (sunburn; cream, blend amount 1 wt %): ⊚ (prominently effective or effective for 80% or more of the subjects) | Ultraviolet prevention effect (sunburn; cream, blend amount 5 wt %): ⊚ (prominently effective or effective for 80% or more of the subjects) | Ultraviolet prevention effect (sunburn; cream, blend amount 10 wt %): ⊚ (prominently effective or effective for 80% or more of the subjects) | Ultraviolet prevention effect (sunburn; cream, blend amount 20 wt %): ⊚ (prominently effective or effective for 80% or more of the subjects) | Ultraviolet prevention effect (sunburn; lotion, blend amount 0.0005 wt %): Δ (prominently effective or effective for 30% or more to less than 50% of the subjects) | Ultraviolet prevention effect (sunburn; lotion, blend amount 0.001 wt %): ◯ (prominently effective or effective for 50% or more to less than 80% of the subjects) | Ultraviolet prevention effect (sunburn; lotion, blend amount 0.01 wt %): ⊚ (prominently effective or effective for 80% or more of the subjects) | Ultraviolet prevention effect (sunburn; lotion, blend amount 1 wt %): ⊚ (prominently effective or effective for 80% or more of the subjects) | Ultraviolet prevention effect (sunburn; lotion, blend amount 5 wt %): ⊚ (prominently effective or effective for 80% or more of the subjects) | Ultraviolet prevention effect (sunburn; lotion, blend amount 10 wt %): ⊚ (prominently effective or effective for 80% or more of the subjects) | Ultraviolet prevention effect (sunburn; lotion, blend amount 20 wt %): ⊚ (prominently effective or effective for 80% or more of the subjects) | Remaining ratio [7]: ⊚ (95% or more of those before daylight exposure) | Change of area under ultraviolet spectrum ([7]; 290 nm to 400 nm): ⊚ (95% or more of those before daylight exposure)
